Earlier results as cited in patent US9040545B2, “Heterocyclyl pyrazolopyrimidine analogues as selective JAK inhibitors” (Cellzome Limited, priority 2010, dated 2015).

What was measured:
[1] = literature; cited from earlier work
[2] = literature; cited from earlier work; remark: listed apart in the source
[3] = NOD mouse, literature; cited from earlier work

| SMILES | efficacy in an animal model of organ transplantation [1] | severity of GVHD [2] | spontaneous autoimmune diabetes development [3] |
| --- | --- | --- | --- |
| C[C@@H]1CCN(C(=O)CC#N)C[C@@H]1N(C)c1ncnc2[nH]ccc12 [CP-690,550] | efficacy | – | – |
| COc1cc2ncnc(Nc3ccc(O)cc3)c2cc1OC [JANEX-1] | – | attenuate the severity of GVHD | prevent spontaneous autoimmune diabetes development |
